How the values were obtained:
PK Oral (MMV) = format: in vivo; settings: for Cmax / Tmax: in vivo
in vitro [1] = settings: human, HepG2 hepatoma cell line
Description: (§1) HepG2 is hepatoma liver tumor cell line. CRL8155 is lymphoblastoid cell line.

in vitro [2] = settings: human, CRL-8155 lymphoblastoid cell line
Description: as §1

PC3 = assay: MTT proliferation assay, PC3; settings: Homo sapiens; for inhibition at 10 µM: PC-3, read-out: MTT % inhib @ 10 μM PC3; for EC50: read-out: EC50 PC3
LNCaP95 = assay: MTT proliferation assay, LNCaP95; format: cell-based; settings: Homo sapiens, LNCaP-95; for EC50: Table 1, LNCaP95 (AR+ PCa), unit inferred; for inhibition at 10 µM: read-out: MTT % inhib @ 10 μM LNCaP95
Description: Anti-tumor activity was determined by screening a series of compounds against the castrate-resistant, androgen-receptor-positive, prostate cancer cell line LNCaP95. […] Inhibition of proliferation was determined based on the level of LNCaP95 cell growth suppression using an MTT assay (NAD(P)H-dependent cellular oxidoreductase enzymatic activities)) read at 72 and 96 hours after addition of the compounds. […] Each cell line was be tested in quadruplicate.

Row | SMILES | AUC (PK Oral (MMV); dose 24.6 mg/kg) | Cmax (PK Oral (MMV); dose 24.6 mg/kg) | Tmax (PK Oral (MMV); dose 24.6 mg/kg) | EC50 (PC3) | EC50 (LNCaP95) | AUC (PK Oral (MMV); dose 25 mg/kg) | Cmax (PK Oral (MMV); dose 25 mg/kg) | Tmax (PK Oral (MMV); dose 25 mg/kg) | CC50 (in vitro [1]) | CC50 (in vitro [2]) | inhibition at 10 µM (PC3) | inhibition at 10 µM (LNCaP95)
1 | CCOc1ncnc2c1c(-c1ccc3cc(OC4CC4)ccc3c1)cn2CC(C)(C)O [Example 6, 1-(5-(6-cyclopropoxynaphthalen-2-yl)-4-ethoxy-7H-pyrrolo[2,3-d]pyrimidin-7-yl)-2-methylpropan-2-ol] | 400 µmol·min/L | 17.6 µM | 1 h | > 20 µM | 10 µM |  |  |  | > 40 µM | > 40 µM | 10.1% | 20.3%
2 | COCCOc1ncnc2c1c(-c1ccc(-c3ccccc3)cc1)cn2CC(C)(C)O [Example 4, 1-(5-(biphenyl-4-yl)-4-(2-methoxyethoxy)-7H-pyrrolo[2,3-d]pyrimidin-7-yl)-2-methylpropan-2-ol] |  |  |  | > 20 µM | 5 µM |  |  |  |  | > 80 µM | 13% | 36.3%
3 | CC(C)(O)Cn1cc(-c2ccc3cc(OC4CC4)ccc3c2)c2c(NCCOCCOCCOCCN)ncnc21 [Example 28, 1-(4-(2-(2-(2-(2-aminoethoxy)ethoxy)ethoxy)ethylamino)-5-(6-cyclopropoxynaphthalen-2-yl)-7H-pyrrolo[2,3-d]pyrimidin-7-yl)-2-methylpropan-2-ol] |  |  |  | > 20 µM | 4 µM |  |  |  | 30.7 µM | 15.4 µM | -8.3% | 43%
4 | CCOCCNc1ncnc2c1c(-c1ccc3cc(OCC)ccc3c1)cn2CC(C)(C)O [Example 31, 1-(4-(2-ethoxyethylamino)-5-(6-ethoxynaphthalen-2-yl)-7H-pyrrolo[2,3-d]pyrimidin-7-yl)-2-methylpropan-2-ol] |  |  |  | > 20 µM | 10 µM | 1724 µmol·min/L | 7.8 µM | 1 h |  |  | 14.9% | 34.9%
5 | CNc1ncnc2c1c(-c1ccc(-c3ccccc3)cc1)nn2CC(C)(C)O [Example 12, 1-(3-(biphenyl-4-yl)-4-(methylamino)-1H-pyrazolo[3,4-d]pyrimidin-1-yl)-2-methylpropan-2-ol] |  |  |  | > 20 µM | 12 µM |  |  |  | > 80 µM | > 80 µM | 8.4% | 36.7%
6 | CC(C)(O)Cn1cc(-c2ccc3cc(OC4CC4)ccc3c2)c2c(NC3CC3)ncnc21 [Example 17, 1-(5-(6-cyclopropoxynaphthalen-2-yl)-4-(cyclopropylamino)-7H-pyrrolo[2,3-d]pyrimidin-7-yl)-2-methylpropan-2-ol] |  |  |  | 10 µM | 2.5 µM |  |  |  |  |  |  | 
7 | COc1ccc2cc(-c3cn(CC(C)(C)O)c4ncnc(NC5CC5)c34)ccc2c1 [Example 42, 1-(4-(cyclopropylamino)-5-(6-methoxynaphthalen-2-yl)-7H-pyrrolo[2,3-d]pyrimidin-7-yl)-2-methylpropan-2-ol] |  |  |  | > 20 µM | 20 µM |  |  |  |  |  |  | 
8 | CCOc1ccc2cc(-c3cn(CC(C)(C)O)c4ncnc(NCCN)c34)ccc2c1 [Example 23, 1-(4-(2-aminoethylamino)-5-(6-ethoxynaphthalen-2-yl)-7H-pyrrolo[2,3-d]pyrimidin-7-yl)-2-methylpropan-2-ol] |  |  |  | > 20 µM | > 10 µM |  |  |  |  |  | 27.2% | 22.9%
9 | CNc1ncnc2c1c(-c1ccc(-c3ccccc3)cc1F)nn2CC(C)(C)O [Example 20, 1-(3-(3-fluorobiphenyl-4-yl)-4-(methylamino)-1H-pyrazolo[3,4-d]pyrimidin-1-yl)-2-methylpropan-2-ol] |  |  |  | > 20 µM | > 20 µM |  |  |  |  |  | 8.3% | 16.5%
10 | CNc1ncnc2c1c(-c1cccc(Cl)c1)cn2CC(C)(C)OC [Example 22, 5-(3-chlorophenyl)-7-(2-methoxy-2-methylpropyl)-N-methyl-7H-pyrrolo[2,3-d]pyrimidin-4-amine] |  |  |  | > 20 µM | 10 µM |  |  |  | > 80 µM | > 80 µM | 4.3% | 40.1%
11 | CC(C)(O)Cn1cc(-c2ccc(-c3ccccc3)cc2)c2c(NCCO)ncnc21 [Example 30, 1-(5-(biphenyl-4-yl)-4-(2-hydroxyethylamino)-7H-pyrrolo[2,3d]pyrimidin-7-yl)-2-methylpropan-2-ol] |  |  |  | > 20 µM | 4 µM |  |  |  |  |  | -18.1% | 37.8%
12 | CC(C)(O)Cn1cc(-c2ccc3cc(OC4CC4)ccc3c2)c2c(NCCOCCNC(=O)OC3CC/C=C/CCC3)ncnc21 (stereo not drawn) [Example 29, trans-cyclooct-4-enyl 2-(2-(5-(6-cyclopropoxynaphthalen-2-yl)-7-(2-hydroxy-2-methylpropyl)-7H-pyrrolo[2,3-d]pyrimidin-4-ylamino)ethoxy)ethylcarbamate] |  |  |  | > 20 µM | 5 µM |  |  |  |  |  | -31% | 33.7%
13 | CNc1ncnc2c1c(-c1cccc(C(C)C)c1)nn2CC(C)(C)O [Example 16, 1-(3-(3-isopropylphenyl)-4-(methylamino)-1H-pyrazolo[3,4-d]pyrimidin-1-yl)-2-methylpropan-2-ol] |  |  |  | > 20 µM | > 15 µM |  |  |  |  |  | -10.5% | 11.3%
14 | CCOCCNc1ncnc2c1c(-c1ccc(-c3ccc(Br)cc3)cc1)cn2CC(C)(C)O [Example 40, 1-(5-(4′-bromobiphenyl-4-yl)-4-(2-ethoxyethylamino)-7H-pyrrolo[2,3-d]pyrimidin-7-yl)-2-methylpropan-2-ol] |  |  |  | > 20 µM | > 10 µM |  |  |  |  |  | 11.1% | -0.2%

Continued, in another order:

Row | AUC (PK Oral (MMV); dose 24.6 mg/kg) | Cmax (PK Oral (MMV); dose 24.6 mg/kg) | Tmax (PK Oral (MMV); dose 24.6 mg/kg) | EC50 (PC3) | EC50 (LNCaP95) | AUC (PK Oral (MMV); dose 25 mg/kg) | Cmax (PK Oral (MMV); dose 25 mg/kg) | Tmax (PK Oral (MMV); dose 25 mg/kg) | SMILES | CC50 (in vitro [1]) | CC50 (in vitro [2]) | inhibition at 10 µM (PC3) | inhibition at 10 µM (LNCaP95)
15 |  |  |  | > 20 µM | 7 µM | 2559 µmol·min/L | 5.1 µM | 0.667 h | CCOc1ccc2cc(-c3cn(CC(C)(C)O)c4ncnc(OCCOC)c34)ccc2c1 [Example 3, 1-(5-(6-ethoxynaphthalen-2-yl)-4-(2-methoxyethoxy)-7H-pyrrolo[2,3-d]pyrimidin-7-yl)-2-methylpropan-2-ol] |  |  | 2.9% | 36.5%
16 |  |  |  | > 20 µM | 12 µM |  |  |  | COCCOc1ncnc2c1c(-c1ccc3ccccc3c1)cn2CC(C)(C)O [Example 7, 1-(4-(2-methoxyethoxy)-5-(naphthalen-2-yl)-7H-pyrrolo[2,3-d]pyrimidin-7-yl)-2-methylpropan-2-ol] |  |  | -36.2% | 23.9%
17 |  |  |  | > 20 µM | 5 µM |  |  |  | CCOc1ccc2cc(-c3cn(CC(C)(C)O)c4ncnc(OCC)c34)ccc2c1 [Example 5, 1-(4-ethoxy-5-(6-ethoxynaphthalen-2-yl)-7H-pyrrolo[2,3-d]pyrimidin-7-yl)-2-methylpropan-2-ol] | > 80 µM | > 80 µM | -3.2% | 50.9%
18 |  |  |  | > 20 µM | 8 µM |  |  |  | CCOCCNc1ncnc2c1c(-c1ccc3cc(OC(C)C)ccc3c1)cn2CC(C)(C)O [Example 36, 1-(4-(2-ethoxyethylamino)-5-(6-isopropoxynaphthalen-2-yl)-7H-pyrrolo[2,3-d]pyrimidin-7-yl)-2-methylpropan-2-ol] |  |  | 15.7% | 22%
19 |  |  |  | > 20 µM | 7 µM |  |  |  | CNc1ncnc2c1c(-c1cccc(C(C)C)c1)cn2CC(C)(C)OC [Example 21, 5-(3-isopropylphenyl)-7-(2-methoxy-2-methylpropyl)-N-methyl-7H-pyrrolo[2,3-d]pyrimidin-4-amine] |  |  | -5.4% | -2.7%
20 |  |  |  | 20 µM | 10 µM |  |  |  | CC(C)Nc1ncnc2c1c(-c1ccc3cc(OC4CC4)ccc3c1)cn2CC(C)(C)O [Example 43, 1-(5-(6-cyclopropoxynaphthalen-2-yl)-4-(isopropylamino)-7H-pyrrolo[2,3-d]pyrimidin-7-yl)-2-methylpropan-2-ol] |  |  |  | 
21 |  |  |  | > 20 µM | 5 µM |  |  |  | CNc1ncnc2c1c(-c1cccc(-c3ccccc3)c1)nn2CC(C)(C)O [Example 19, 1-(3-(biphenyl-3-yl)-4-(methylamino)-1H-pyrazolo[3,4-d]pyrimidin-1-yl)-2-methylpropan-2-ol] |  |  | 4.4% | 21.3%
22 |  |  |  | > 20 µM | 12 µM |  |  |  | CNc1ncnc2c1c(-c1ccc(-c3ccccc3)cc1)cn2CC(C)(C)O [Example 13, 1-(5-(biphenyl-4-yl)-4-(methylamino)-7H-pyrrolo[2,3-d]pyrimidin-7-yl)-2-methylpropan-2-ol] | > 80 µM | > 80 µM | -4.3% | 40.9%
23 |  |  |  | > 20 µM | > 10 µM |  |  |  | CCOCCNc1ncnc2c1c(-c1ccc(-c3ccc(CC)cc3)cc1)cn2CC(C)(C)O [Example 39, 1-(4-(2-ethoxyethylamino)-5-(4′-ethylbiphenyl-4-yl)-7H-pyrrolo[2,3-d]pyrimidin-7-yl)-2-methylpropan-2-ol] |  |  | 8.3% | 29.2%
24 |  |  |  | > 20 µM | > 10 µM |  |  |  | CCOCCNc1ncnc2c1c(-c1ccc(-c3ccccc3)cc1)cn2CC(C)(C)O [Example 37, 1-(5-(biphenyl-4-yl)-4-(2-ethoxyethylamino)-7H-pyrrolo[2,3-d]pyrimidin-7-yl)-2-methylpropan-2-ol] |  |  | 9% | 8.4%

Source: US12522606B2, “Modified pyrrolo- and pyrazolo-pyrimidines for prostate cancer therapy” (University of Washington, priority 2020, dated 2026)
